Measurements from US20200325177A1, “METHODS OF MAKING STREPTOGRAMIN COMPOSITIONS AND THE USE THEREOF” (THE REGENTS OF THE UNIVERSITY OF CALIFORNIA, priority 2017, published 2020).
Values after ≈ are worked out from the molar mass of the structure shown. Where two headings read alike, the source gives them in different places.

Tests used:
Format in all cases: cell-based
H. influenzae ATCC 49247 = experiment: MIC, Gram-negative bacteria: H. influenzae ATCC 49247; settings: Haemophilus influenzae, ATCC49247, read-out: Minimal Inhibitory Concentration (MIC) H. influenzae ATCC 49247
E. faecium VRE; vanA = experiment: MIC, Gram-positive bacteria: E. faecium VRE; vanA; settings: Enterococcus faecium, column 3, read-out: Minimal Inhibitory Concentration (MIC) E. faecium VRE
[1] = system: S. aureus Vat A streptogramin; experiment: MIC, Gram-positive bacteria: S. aureus Vat A streptogramin; settings: Staphylococcus aureus; Gram-positive; column 5; read-out: Minimal Inhibitory Concentration (MIC) S. aureus Vat A streptogramin
[2] = system: S. aureus Linezolid-resistant; cfr; experiment: MIC, Gram-positive bacteria: S. aureus Linezolid-resistant; cfr; settings: Staphylococcus aureus, column 9, read-out: Minimal Inhibitory Concentration (MIC) S. aureus Linezolid-resistant
E. faecium ATCC 35667 = experiment: MIC, Gram-positive bacteria: E. faecium ATCC 35667; settings: Enterococcus faecium, ATCC35667, column 2, read-out: Minimal Inhibitory Concentration (MIC) E. faecium ATCC 35667
[3] = system: P. aeruginosa MDR clinical isolate; experiment: MIC, Gram-negative bacteria: P. aeruginosa MDR clinical isolate; settings: Pseudomonas aeruginosa, read-out: Minimal Inhibitory Concentration (MIC) P. aeruginosa MDR clinical isolate
S. pneumoniae = experiment: MIC, Gram-positive bacteria: S. pneumoniae; settings: Streptococcus pneumoniae, column 10, read-out: Minimal Inhibitory Concentration (MIC) S. pneumoniae
S. aureus = experiment: MIC, Gram-positive bacteria: S. aureus (strains not named); settings: Staphylococcus aureus, read-out: Minimal Inhibitory Concentration (MIC) S. aureus
Gram-Negative Organisms = experiment: microbe, parasite or virus in culture
P. aeruginosa ATCC 27853 = experiment: MIC, Gram-negative bacteria: P. aeruginosa ATCC 27853; settings: Pseudomonas aeruginosa, ATCC27853, read-out: Minimal Inhibitory Concentration (MIC) P. aeruginosa ATCC 27853
[4] = system: K. pneumoniae multidrug-resistant; experiment: MIC, Gram-negative bacteria: K. pneumoniae multidrug-resistant; settings: Klebsiella pneumoniae, read-out: Minimal Inhibitory Concentration (MIC) K. pneumoniae multidrug-resistant
E. faecalis = experiment: MIC, Gram-positive bacteria: E. faecalis; settings: Enterococcus faecalis, column 1, read-out: Minimal Inhibitory Concentration (MIC) E. faecalis
[5] = first unnamed S. aureus column (c4)
[6] = fourth unnamed S. aureus column (c8)
[7] = second unnamed S. aureus column (c6)
[8] = third unnamed S. aureus column (c7)
[9] = Acinetobacter baumannii, ATCC19606, read-out: Minimal Inhibitory Concentration (MIC), A. baumannii ATCC 19606
[10] = Escherichia coli, ATCC25922, read-out: Minimal Inhibitory Concentration (MIC), E. coli ATCC 25922
[11] = Escherichia coli, read-out: Minimal Inhibitory Concentration (MIC), E. coli BAS2006, OMP C, OMP F
[12] = Escherichia coli, read-out: Minimal Inhibitory Concentration (MIC), E. coli olC efflux defective
[13] = Escherichia coli, read-out: Minimal Inhibitory Concentration (MIC), E. coli permeability mutant BAS1314, IMP4213ZAB::TN10
[14] = Escherichia coli, read-out: Minimal Inhibitory Concentration (MIC), E. coli ΔompC768, KanR insert
[15] = Klebsiella pneumoniae, ATCC43816, read-out: Minimal Inhibitory Concentration (MIC), K. pneumoniae ATCC 43816

Row | Structure (SMILES) | MIC (H. influenzae ATCC 49247) | MIC (E. faecium VRE; vanA) | MIC [1] | MIC [2] | MIC (E. faecium ATCC 35667) | MIC [3] | MIC (S. pneumoniae) | MIC (S. aureus; [5]) | MIC (S. aureus; [6]) | MIC (S. aureus; [7]) | MIC (S. aureus; [8]) | MIC (Gram-Negative Organisms; [9]) | MIC (Gram-Negative Organisms; [10]) | MIC (Gram-Negative Organisms; [11]) | MIC (Gram-Negative Organisms; [12]) | MIC (Gram-Negative Organisms; [13]) | MIC (Gram-Negative Organisms; [15]) | MIC (P. aeruginosa ATCC 27853) | MIC [4] | MIC (E. faecalis) | further results
1 | CC1=C\[C@@H](O)CC(=O)Cc2nc(co2)C(=O)N2CCC[C@@H]2C(=O)O[C@H]([C@H](C)COC(=O)Nc2ccccn2)[C@H](C)/C=C/C(=O)NC\C=C\1 [SA0110222] | 16 µg/mL (≈ 24.1 µM) | 64 µg/mL (≈ 96.4 µM) | > 64 µg/mL | > 64 µg/mL | 32 µg/mL (≈ 48.2 µM) | > 64 µg/mL | 32 µg/mL (≈ 48.2 µM) | > 64 µg/mL | 64 µg/mL (≈ 96.4 µM) | > 64 µg/mL | > 64 µg/mL | > 64 µg/mL | > 64 µg/mL | 64 µg/mL (≈ 96.4 µM) | 4 µg/mL (≈ 6.03 µM) | 16 µg/mL (≈ 24.1 µM) | > 64 µg/mL | > 64 µg/mL | > 64 µg/mL | > 64 µg/mL | MIC (Gram-Negative Organisms; [14]): > 64 µg/mL
2 | CC1=C\[C@@H](O)CC(=O)Cc2nc(co2)C(=O)N2CCC[C@@H]2C(=O)O[C@H]([C@@H](C)COC(=O)Nc2coc(C)n2)[C@H](C)/C=C/C(=O)NC\C=C\1 [SA0110095] | 64 µg/mL (≈ 95.8 µM) | > 64 µg/mL | > 64 µg/mL | > 64 µg/mL | 32 µg/mL (≈ 47.9 µM) | > 64 µg/mL | 16 µg/mL (≈ 24 µM) | > 64 µg/mL | 64 µg/mL (≈ 95.8 µM) | > 64 µg/mL | > 64 µg/mL | > 64 µg/mL | > 64 µg/mL | 32 µg/mL (≈ 47.9 µM) | 8 µg/mL (≈ 12 µM) | 16 µg/mL (≈ 24 µM) | > 64 µg/mL | > 64 µg/mL | > 64 µg/mL | > 64 µg/mL | –
3 | CC1=C\[C@@H](O)CC(=O)Cc2nc(co2)C(=O)N2CCC[C@@H]2C(=O)O[C@H]([C@@H](C)COC(=O)Nc2ccc(F)cc2)[C@H](C)/C=C/C(=O)NC\C=C\1 [SA0110036] | > 64 µg/mL | 32 µg/mL (≈ 47 µM) | > 64 µg/mL | > 64 µg/mL | 8 µg/mL (≈ 11.8 µM) | > 64 µg/mL | 16 µg/mL (≈ 23.5 µM) | 32 µg/mL (≈ 47 µM) | 16 µg/mL (≈ 23.5 µM) | 32 µg/mL (≈ 47 µM) | > 64 µg/mL | > 64 µg/mL | > 64 µg/mL | 8 µg/mL (≈ 11.8 µM) | 2 µg/mL (≈ 2.94 µM) | 8 µg/mL (≈ 11.8 µM) | > 64 µg/mL | > 64 µg/mL | > 64 µg/mL | > 64 µg/mL | –
4 | CC1=C\[C@@H](O)CC(=O)Cc2nc(co2)C(=O)N[C@H](Cc2c[nH]c3ccccc23)C(=O)O[C@H](C(C)C)[C@H](C)/C=C/C(=O)NC\C=C\1 [SA0202089] | > 64 µg/mL | 32 µg/mL (≈ 51.9 µM) | 64 µg/mL (≈ 104 µM) | > 64 µg/mL | 32 µg/mL (≈ 51.9 µM) | > 64 µg/mL | 32 µg/mL (≈ 51.9 µM) | 32 µg/mL (≈ 51.9 µM) | 32 µg/mL (≈ 51.9 µM) | 32 µg/mL (≈ 51.9 µM) | 32 µg/mL (≈ 51.9 µM) | > 64 µg/mL | > 64 µg/mL | 32 µg/mL (≈ 51.9 µM) | 16 µg/mL (≈ 25.9 µM) | 8 µg/mL (≈ 13 µM) | > 64 µg/mL | > 64 µg/mL | > 64 µg/mL | > 64 µg/mL | –
5 | CC1=C\[C@@H](O)CC(=O)Cc2nc(co2)C(=O)N2CCC[C@@H]2C(=O)O[C@H]([C@@H](C)CN2CCC(N(C)C)CC2)[C@H](C)/C=C/C(=O)NC\C=C\1 [SA0110252] | > 64 µg/mL | > 64 µg/mL | > 64 µg/mL | > 64 µg/mL | > 64 µg/mL | > 64 µg/mL | > 64 µg/mL | > 64 µg/mL | > 64 µg/mL | > 64 µg/mL | > 64 µg/mL | > 64 µg/mL | > 64 µg/mL | > 64 µg/mL | > 64 µg/mL | > 64 µg/mL | > 64 µg/mL | > 64 µg/mL | > 64 µg/mL | > 64 µg/mL | MIC (Gram-Negative Organisms; [14]): > 64 µg/mL
6 | CC1=C\[C@@H](O)CC(=O)Cc2nc(co2)C(=O)N2CCC[C@@H]2C(=O)O[C@H]([C@@H](C)COC(=O)Nc2ccnc(Br)c2)[C@H](C)/C=C/C(=O)NC\C=C\1 [SA0110081] | > 64 µg/mL | > 64 µg/mL | > 64 µg/mL | > 64 µg/mL | 32 µg/mL (≈ 43.1 µM) | > 64 µg/mL | 32 µg/mL (≈ 43.1 µM) | > 64 µg/mL | 32 µg/mL (≈ 43.1 µM) | > 64 µg/mL | > 64 µg/mL | > 64 µg/mL | > 64 µg/mL | 32 µg/mL (≈ 43.1 µM) | 4 µg/mL (≈ 5.39 µM) | 32 µg/mL (≈ 43.1 µM) | > 64 µg/mL | > 64 µg/mL | > 64 µg/mL | > 64 µg/mL | –
